Reference: patent US20220281848A1, “PYRAZOLE-SUBSTITUTED PYRROLIDINONES AS HERBICIDES” (FMC Corporation, priority 2019, published 2022)

Key:
Type in all cases: in vivo
Conditions in all cases: after 13 d
[1] = system: ivy-leaved morning glory (Ipomoea hederacea, IPOHE); test: Test A post-emergence, ivy-leaved morning glory
Experimental: (§1) Seeds of corn (Zea mays, ZEAMX), giant foxtail (Setaria faberi, SETFA), barnyardgrass (Echinochloa crus-galli, ECHCG), ivy-leaved morning glory (Ipomoea hederacea, IPOHE)), redroot pigweed (Amaranthus retroflexus, AMARE) and velvetleaf (Abutilon theophrasti, ABUTH) were sown in standard soil in pots. After cultivation for 8 d under controlled conditions in a glasshouse (at 24/16° C., day/night; 14 h light; 65% humidity), the plants were sprayed with an aqueous spray solution derived from the formulation of the technical active ingredient in acetone/water (50:50) solution containing 0.5% Tween 20 (polyoxyethylene sorbitan monolaurate, CAS RN 9005-64-5) to give a final dose of 15.625, 62.5 or 250 g/ha of test compound.
(§2) The test plants were then grown on under controlled conditions in a glasshouse (at 24/16° C., day/night; 14 h light; 65% humidity) and watered twice daily. After 13 d the test was evaluated (100=total damage to plant; 0=no damage to plant).

[2] = system: velvetleaf (Abutilon theophrasti, ABUTH); test: Test A pre-emergence, velvetleaf
Experimental: as §1, with “IPOHE),” for “IPOHE)),”, “one day” for “8 d”
(§3) The test plants were then grown under controlled conditions in a glasshouse (at 24/16° C., day/night; 14 h light; 65% humidity) and watered twice daily. After 13 d the test was evaluated (100=total damage to plant; 0=no damage to plant).

[3] = system: barnyardgrass (Echinochloa crus-galli, ECHCG); test: Test A pre-emergence, barnyardgrass
Experimental: as §1, with “IPOHE),” for “IPOHE)),”, “one day” for “8 d”
as §3

[4] = system: barnyardgrass (Echinochloa crus-galli, ECHCG); test: Test A post-emergence, barnyardgrass
Experimental: as §1, §2

[5] = system: redroot pigweed (Amaranthus retroflexus, AMARE); test: Test A pre-emergence, redroot pigweed
Experimental: as §1, with “IPOHE),” for “IPOHE)),”, “one day” for “8 d”
as §3

[6] = system: giant foxtail (Setaria faberi, SETFA); test: Test A post-emergence, giant foxtail
Experimental: as §1, §2

[7] = system: velvetleaf (Abutilon theophrasti, ABUTH); test: Test A post-emergence, velvetleaf
Experimental: as §1, §2

[8] = system: redroot pigweed (Amaranthus retroflexus, AMARE); test: Test A post-emergence, redroot pigweed
Experimental: as §1, §2

[9] = system: corn (Zea mays, ZEAMX); test: Test A post-emergence, corn
Experimental: as §1, §2

[10] = system: corn (Zea mays, ZEAMX); test: Test A pre-emergence, corn
Experimental: as §1, with “IPOHE),” for “IPOHE)),”, “one day” for “8 d”
as §3

[11] = system: ivy-leaved morning glory (Ipomoea hederacea, IPOHE); test: Test A pre-emergence, ivy-leaved morning glory
Experimental: as §1, with “IPOHE),” for “IPOHE)),”, “one day” for “8 d”
as §3

[12] = system: giant foxtail (Setaria faberi, SETFA); test: Test A pre-emergence, giant foxtail
Experimental: as §1, with “IPOHE),” for “IPOHE)),”, “one day” for “8 d”
as §3

Row | Compound | damage to plant (100=total damage; 0=no damage) IPOHE ([1]; Post-Emergence at 15.625 g/ha) | damage to plant (100=total damage; 0=no damage) IPOHE ([1]; Post-Emergence at 62.5 g/ha) | damage to plant (100=total damage; 0=no damage) IPOHE ([1]; Post-Emergence at 250 g/ha) | damage to plant (100=total damage; 0=no damage) ABUTH ([2]; Pre-Emergence at 15.625 g/ha) | damage to plant (100=total damage; 0=no damage) ABUTH ([2]; Pre-Emergence at 62.5 g/ha) | damage to plant (100=total damage; 0=no damage) ABUTH ([2]; Pre-Emergence at 250 g/ha) | damage to plant (100=total damage; 0=no damage) ECHCG ([3]; Pre-Emergence at 15.625 g/ha) | damage to plant (100=total damage; 0=no damage) ECHCG ([3]; Pre-Emergence at 62.5 g/ha) | damage to plant (100=total damage; 0=no damage) ECHCG ([3]; Pre-Emergence at 250 g/ha) | damage to plant (100=total damage; 0=no damage) ECHCG ([4]; Post-Emergence at 15.625 g/ha) | damage to plant (100=total damage; 0=no damage) ECHCG ([4]; Post-Emergence at 62.5 g/ha) | damage to plant (100=total damage; 0=no damage) ECHCG ([4]; Post-Emergence at 250 g/ha) | damage to plant (100=total damage; 0=no damage) AMARE ([5]; Pre-Emergence at 15.625 g/ha) | damage to plant (100=total damage; 0=no damage) AMARE ([5]; Pre-Emergence at 62.5 g/ha) | damage to plant (100=total damage; 0=no damage) AMARE ([5]; Pre-Emergence at 250 g/ha) | damage to plant (100=total damage; 0=no damage) SETFA ([6]; Post-Emergence at 15.625 g/ha) | damage to plant (100=total damage; 0=no damage) SETFA ([6]; Post-Emergence at 62.5 g/ha) | damage to plant (100=total damage; 0=no damage) SETFA ([6]; Post-Emergence at 250 g/ha) | damage to plant (100=total damage; 0=no damage) ABUTH ([7]; Post-Emergence at 15.625 g/ha) | damage to plant (100=total damage; 0=no damage) ABUTH ([7]; Post-Emergence at 62.5 g/ha) | further results
1 | CCn1nc(C2CN(C)C(=O)C2C(=O)Nc2cccc(F)c2F)c2cccc(F)c21 (racemic) [Compound 10] | 0 | 0 | 30 | 0 | 10 | 0 | 50 | 90 | 90 | 60 | 90 | 90 | 0 | 0 | 10 | 50 | 80 | 90 | 0 | 0 | damage to plant (100=total damage; 0=no damage) ABUTH ([7]; Post-Emergence at 250 g/ha): 10; damage to plant (100=total damage; 0=no damage) AMARE ([8]; Post-Emergence at 15.625 g/ha): 0; damage to plant (100=total damage; 0=no damage) AMARE ([8]; Post-Emergence at 62.5 g/ha): 0; damage to plant (100=total damage; 0=no damage) AMARE ([8]; Post-Emergence at 250 g/ha): 0; damage to plant (100=total damage; 0=no damage) ZEAMX ([9]; Post-Emergence at 15.625 g/ha): 0; damage to plant (100=total damage; 0=no damage) ZEAMX ([9]; Post-Emergence at 62.5 g/ha): 10; damage to plant (100=total damage; 0=no damage) ZEAMX ([9]; Post-Emergence at 250 g/ha): 70; damage to plant (100=total damage; 0=no damage) ZEAMX ([10]; Pre-Emergence at 15.625 g/ha): 0; damage to plant (100=total damage; 0=no damage) ZEAMX ([10]; Pre-Emergence at 62.5 g/ha): 70; damage to plant (100=total damage; 0=no damage) ZEAMX ([10]; Pre-Emergence at 250 g/ha): 70; damage to plant (100=total damage; 0=no damage) IPOHE ([11]; Pre-Emergence at 15.625 g/ha): 0; damage to plant (100=total damage; 0=no damage) IPOHE ([11]; Pre-Emergence at 62.5 g/ha): 30; damage to plant (100=total damage; 0=no damage) IPOHE ([11]; Pre-Emergence at 250 g/ha): 0; damage to plant (100=total damage; 0=no damage) SETFA ([12]; Pre-Emergence at 15.625 g/ha): 80; damage to plant (100=total damage; 0=no damage) SETFA ([12]; Pre-Emergence at 62.5 g/ha): 90; damage to plant (100=total damage; 0=no damage) SETFA ([12]; Pre-Emergence at 250 g/ha): 90
2 | CN1CC(c2cc(C(F)(F)F)n(C)n2)C(C(=O)Nc2cccc(F)c2F)C1=O (stereo not drawn) [Compound 12] | 0 | 0 | 0 | 0 | 0 | 0 | 0 | 0 | 10 | 0 | 0 | 0 | 0 | 0 | 10 | 0 | 0 | 0 | 0 | 0 | damage to plant (100=total damage; 0=no damage) ABUTH ([7]; Post-Emergence at 250 g/ha): 0; damage to plant (100=total damage; 0=no damage) AMARE ([8]; Post-Emergence at 15.625 g/ha): 0; damage to plant (100=total damage; 0=no damage) AMARE ([8]; Post-Emergence at 62.5 g/ha): 0; damage to plant (100=total damage; 0=no damage) AMARE ([8]; Post-Emergence at 250 g/ha): 0; damage to plant (100=total damage; 0=no damage) ZEAMX ([9]; Post-Emergence at 15.625 g/ha): 0; damage to plant (100=total damage; 0=no damage) ZEAMX ([9]; Post-Emergence at 62.5 g/ha): 0; damage to plant (100=total damage; 0=no damage) ZEAMX ([9]; Post-Emergence at 250 g/ha): 0; damage to plant (100=total damage; 0=no damage) ZEAMX ([10]; Pre-Emergence at 15.625 g/ha): 0; damage to plant (100=total damage; 0=no damage) ZEAMX ([10]; Pre-Emergence at 62.5 g/ha): 0; damage to plant (100=total damage; 0=no damage) ZEAMX ([10]; Pre-Emergence at 250 g/ha): 20; damage to plant (100=total damage; 0=no damage) IPOHE ([11]; Pre-Emergence at 15.625 g/ha): 0; damage to plant (100=total damage; 0=no damage) IPOHE ([11]; Pre-Emergence at 62.5 g/ha): 0; damage to plant (100=total damage; 0=no damage) IPOHE ([11]; Pre-Emergence at 250 g/ha): 20; damage to plant (100=total damage; 0=no damage) SETFA ([12]; Pre-Emergence at 15.625 g/ha): 0; damage to plant (100=total damage; 0=no damage) SETFA ([12]; Pre-Emergence at 62.5 g/ha): 0; damage to plant (100=total damage; 0=no damage) SETFA ([12]; Pre-Emergence at 250 g/ha): 0
